Values joined by “and” are separate entries in the source; they are usually repeats but may differ in a detail not shown here. Equal values may be shown once.
Experiments:
[1] = molecular target: T1, RNA-dependent DNA polymerase activity of HIV reverse transcriptase (Human immunodeficiency virus type 1 group M subtype B, UniProt P04585); assay: RNA-dependent DNA polymerase activity assay of HIV reverse transcriptase; type: biochemical, HIV-1; conditions: 10 μM inhibitor concentration, activity with analog / without analog x 100
T1 construct: made in house
Description: In separate, representative assays, mappicine analogs were tested for their ability to inhibit the RNA-dependent DNA polymerase activity of HIV reverse transcriptase and for their ability to inhibit the RNase H activity of HIV reverse transcriptase. The assay for RNA-dependent DNA polymerase activity is discussed in Borkow, G. et al., “Inhibition of the Ribonuclease H and DNA Polymerase Activities of HIV-1 Reverse Transcriptase by N-(4-tert-Butylbenzoyl)-2-hydroxy-1-naphthaldehyde Hydrazone,” Biochemistry 1997, 36, 3179-3185, a copy of which is attached hereto, and the disclosure of which is incorporated herein by reference. Assays were carried out in the absence and in the presence of mappicine analogs (10 μM final concentration). The results are reported as % residual activity, which is the RNA-dependent DNA polymerase activity of the enzyme in the presence of the mappicine analog divided by the RNA-dependent activity of the enzyme in the absence of the mappicine analog, multiplied by 100.

[2] = molecular target: RNase H activity of HIV reverse transcriptase (Human immunodeficiency virus type 1 group M subtype B, UniProt P04585); assay: Fluorescence (FRET)-based RNase H activity assay of HIV reverse transcriptase; type: biochemical, HIV-1; set-up: final concentration of 2.5 nM of the p51/p66 RT heterodimer in the assay; made in house; conditions: 10 μM inhibitor concentration, activity with analog / without analog x 100
Description: Recently, a fluorescence-based assay to perform preliminary screens in search of HIV RNase H inhibitors has been developed. The assay, which is carried out in 96-well microplates and is adaptable to robotics, is the first high-throughput screen for RNase H and is described in further detail in the Experimental section. HIV-1 RT and human RNase H were cloned, and thus comparative analysis of inhibitor action could be conducted simultaneously.
The assay for RNase H activity of HIV reverse transcriptase was the fluorescence-based assay described in detail in the Experimental section and discussed in U.S. Provisional Patent Application Serial No. 60/318,359. Assays were carried out in the absence and in the presence of mappicine analogs (10 μM final concentration). The results are reported as % residual activity, which is the RNase H activity of the enzyme in the presence of the mappicine analog divided by the RNase H activity of the enzyme in the absence of the mappicine analog, multiplied by 100. Alternatively, the results are reported as % inhibition, which is calculated as the ratio of the RNase H activity of the enzyme in the presence of the mappicine analog to the enzyme activity in the absence of the mappicine analog, multiplied by 100, and then subtracting this number from 100.
Assay for Ribonuclease H Activity Based on Fluorescence Resonance Energy Transfer (FRET)
Preparation of the Fluorophore-RNA/Quencher-DNA Hybrid Duplex Substrate.
The RNA/DNA hybrid duplex substrate for use in the assay comprises an RNA oligonucleotide of sequence 5′-GAU CUG AGC CUG GGA GCU-3′, modified at the 3′-end with Aminolink-2 and derivatized with fluorescein isothiocyanate, to provide a modified RNA oligonucleotide of the sequence 5′-GAU CUG AGC CUG GGA GCU-fluorescein-3′, annealed to a complementary DNA oligonucleotide of the sequence 5′-AGC TCC CAG GCT CAG ATC-3′ modified at the 5′-end with Aminolink-2 and derivatized with the FRET acceptor DABCYL succinimidyl ester, to provide a modified DNA oligonucleotide of the sequence 5′-DABCYL-AGC TCC CAG GCT CAG ATC-3′.
To prepare the 3′-fluorescein-RNA/5′-DABCYL-DNA hybrid duplex substrate, a known amount of 3′-fluorescein-RNA was dissolved in 20 mM Tris buffer (pH 8.0, 37° C.) to provide a final concentration of 5 μM. Two equivalents of the 5′-DABCYL-DNA oligonucleotide were added, and the mixture was heated to 90° C. for 5 min and cooled slowly to room temperature to allow duplex formation. The positioning of the fluorescein donor at the 3′-end of the RNA oligonucleotide and the DABCYL acceptor at the 5′-end of the DNA oligonucleotide provides a very close proximity of the donor and acceptor that results in a very intense quenching of the fluorescein emission in the intact RNA/DNA hybrid duplex substrate due to the spectral overlap of the fluorescence emission of fluorescein with the absorption spectrum of DABCYL. In addition, DABCYL is non-fluorescent, and thus cannot contribute any light emission. Both of these factors result in a very low background and provide a high signal-to-noise in the assay measurements. The ratio of the donor fluorescence in the absence and in the presence of its quencher is approximately fifteen-fold.
Microplate Assay Protocol for the Measurement of RNase H Activity Using the RNA/DNA Hybrid Duplex Substrate.
Reaction assay mixtures contained 5 μl of a stock solution of 2.5 μM RNA/DNA hybrid duplex substrate added to 85 μl of assay buffer (50 mM Tris, pH 8.0, 37° C., containing 60 mM KCl and 2.5 mM MgCl2), prepared in the wells of a 96-well fluorescence microtiter plate, and warmed to 37° C. using the temperature control of the SpectraMax Gemini XS microplate spectrofluorometer (Molecular Devices). Reactions were started by the addition of 5 μl of a solution of recombinant HIV-1 reverse transcriptase (usually providing a final concentration of 2.5 nM of the p51/p66 RT heterodimer in the assay), and mixing using the automatic mixing function of the microplate spectrofluorometer. […]

Compound	Residual activity (%) Polymerase [1]	Residual activity (%) RNase H [2]	also measured
Cc1c(C(O)CCC2CCCCC2)cc2n(c1=O)Cc1c-2nc2ccccc2c1[Si](C)(C)C(C)(C)C (racemic) [4Aδ]	45%	95%	
CCCCCCc1c2c(nc3ccccc13)-c1cc(C(O)C(C)(C)C)c(C)c(=O)n1C2 (centres unmarked) [8Aβ]	103%	91%	
CCC(O)c1cc2n(c(=O)c1C)Cc1c-2nc2ccccc2c1[Si](C)(C)C (racemic) [AG 1M]			Residual activity (%) Polymerase ([1]; 10 µM): 89%; Residual activity (%) RNase H ([2]; 10 µM): 73%
Cc1c(C(=O)C(C)(C)C)cc2n(c1=O)Cc1c-2nc2ccc(F)cc2c1[Si](C)(C)C [5Bβκ]	63%	100%	
Cc1ccc2nc3c(c([Si](C)(C)C)c2c1)Cn1c-3cc(C(O)Cc2ccccc2)c(C)c1=O (racemic) [5Cε]	87%	93%	
CCc1c2c(nc3ccc(OC(C)=O)cc13)-c1cc(C(O)CC)c(C)c(=O)n1C2 (centres unmarked) [AG 7M, 2-Acetoxy-12-ethyl-7-(1-hydroxypropyl)-8-methyl-11H-indolizino[1,2-b]quinolin-9-one]			remaining activity at 10 µM ([1]; read-out: Residual activity (%) Polymerase): 99%; remaining activity at 10 µM ([2]; read-out: Residual activity (%) RNase H): 63%
CCC(=O)c1cc2n(c(=O)c1C)Cc1c-2nc2ccc(C)cc2c1[Si](C)(C)C(C)(C)C [4Cακ]	52%	90%	
Cc1c(C(=O)C(C)(C)C)cc2n(c1=O)Cc1c-2nc2ccccc2c1-c1ccccc1 [3Aβκ]	64%	94%	
COc1ccc2nc3c(c([Si](C)(C)C(C)(C)C)c2c1)Cn1c-3cc(C(=O)CCC2CCCCC2)c(C)c1=O [4Dδκ]			Residual activity (%) Polymerase ([1]; 10 µM): 50% and 64%; Residual activity (%) RNase H ([2]; 10 µM): 83% and 97%
CCC(O)c1cc2n(c(=O)c1C)Cc1c-2nc2ccc(C)cc2c1[Si](C)(C)C (centres unmarked) [5Cα]	68%	62%	
CCCCCCc1c2c(nc3ccc(C)cc13)-c1cc(C(O)CCC3CCCCC3)c(C)c(=O)n1C2 (centres unmarked) [8Cδ]	73%	72%	
Cc1ccc2nc3c(c([Si](C)(C)C)c2c1)Cn1c-3cc(C(O)CCC2CCCCC2)c(C)c1=O (racemic) [5Cδ]	41%	103%	
CCCCCCc1c2c(nc3ccc(F)cc13)-c1cc(C(O)CCC3CCCCC3)c(C)c(=O)n1C2 (centres unmarked) [8Bδ]	90%	112%	
COc1ccc2nc3c(c([Si](C)(C)C)c2c1)Cn1c-3cc(C(=O)CCC2CCCCC2)c(C)c1=O [5Dδκ]	40%	92%	
CCC(O)c1cc2n(c(=O)c1C)Cc1c-2nc2ccccc2c1-c1ccccc1 (racemic) [3Aα]	90%	97%	
CCCCCCc1c2c(nc3ccccc13)-c1cc(C(=O)CC)c(C)c(=O)n1C2 [8Aακ]	53%	77%	
Cc1c(C(O)Cc2ccccc2)cc2n(c1=O)Cc1c-2nc2ccccc2c1[Si](C)(C)C(C)(C)C (racemic) [4Aε]	83%	93%	
CCC(=O)c1cc2n(c(=O)c1C)Cc1c-2nc2ccc(C)cc2c1-c1ccccc1 [3Cακ]	71%	99%	
CCC(O)c1cc2n(c(=O)c1C)Cc1c-2nc2ccc(F)cc2c1[Si](C)(C)C(C)(C)C (racemic) [4Bα]	98%	108%	
CCCCCCc1c2c(nc3ccc(OC)cc13)-c1cc(C(O)CCC3CCCCC3)c(C)c(=O)n1C2 (racemic) [8Dδ]	81%	63%	
Cc1c(C(O)Cc2ccccc2)cc2n(c1=O)Cc1c-2nc2ccc(F)cc2c1-c1ccccc1 (racemic) [3Bε]	28%	91%	
Cc1c(C(O)CCC2CCCCC2)cc2n(c1=O)Cc1c-2nc2ccc(F)cc2c1-c1ccccc1 (racemic) [3Bδ]	81%	99%	

— patent publication US20040058948A1, “Mappicine analogs, methods of inhibiting retroviral reverse transcriptase and methods of treating retroviruses” (priority 2002, published 2004)
